Values quoted from earlier work in publication PMC12394912 (RSC Chemical Biology, 2025).

Cc1ncsc1-c1ccc(CNC(=O)[C@@H]2C[C@@H](O)CN2C(=O)[C@@H](NC(=O)COCCOCCOCCNC(=O)C[C@@H]2N=C(c3ccc(Cl)cc3)c3c(sc(C)c3C)-n3c(C)nnc32)C(C)(C)C)cc1 [MZ1]
PAMPA permeability, fold lower than E3 ligand VH032: ~290 fold | PAMPA permeability, fold lower than POI ligand JQ1: approximately 190 fold
